Results on three compounds are retold here after publication PMC4245237, “Searching the Cytochrome P450 Enzymes for the Metabolism of Meranzin Hydrate: A Prospective Antidepressant Originating from Chaihu-Shugan-San” (PLoS ONE, 2014).

Values joined by “and” are separate entries in the source; they are usually repeats but may differ in a detail not shown here. Equal values may be shown once. “Also recorded” adds a separate entry of the source. Where a name gives a salt, the structure may show the parent alone. Read-outs that look alike come from different tables or passages of the source. Bounds are passed on as bounds.

The target in data set [1] is CYP2E1 (Homo sapiens, UniProt P05181). The following applies: cited from earlier work.
In data set [2] the target is T1, CYP2C9 (Homo sapiens, UniProt P11712).
T1 construct: tissue Cypex Ltd. (U.K.); host or cells: pooled human liver microsomes, ten donors
The data set can be described thus: Effect of specific inhibitor sulfaphenazole on MH metabolism in HLMs. The data set is classed as in vitro ADME. The following applies: MH 10 µM, in the presence of SUL 1 µM. Here is the method: (§1) The samples were vortexed for 5 min.
(§2) P<0.05 denoted significance in all cases.

The test system of data set [3] is longitudinal and circular jejunum muscles. Particulars: dose-dependent manner; cited from earlier work.
Details of data set [4]: method as in PMID 21061180. Particulars: rats; cited from earlier work.
Data set [5] has as its target T2, CYP2C19 (Homo sapiens, UniProt P33261). Nature of the data set: MCR of MH with recombinant CYP2C19 inhibited by ticlopidine. Format: in vitro ADME. Details: purchased Cypex Ltd. (U.K.). The following applies: ticlopidine 1 µM. As for the experimental part:
as §1
(§3) Figure 3 Effect on the metabolic clearance rate (MCR) of meranzin hydrate (MH) under the inhibition of recombinant CYP1A2 and CYP2C19. […] Each point represents the average of triplicate incubations.

Data set [6] has as its target T2, CYP2C19. Nature of the data set: Inhibition of CYP2C19 (S-Mephenytoin 4-hydroxylation) in HLMs. More on the design: tissue Cypex Ltd. (U.K.); host or cells: pooled human liver microsomes, ten donors. The data set is classed as in vitro ADME. Here is the method:
as §1
(§4) All incubation conditions were the same as mentioned above.
(§5) Therefore, Dixon plots for the inhibition of CYP1A2 and CYP2C19 were determined by incubating the substrate probe at multiple concentrations with or without the test inhibitor at multiple concentrations with the HLMs and cofactors. The inhibition data obtained from the pilot experiments were used as a guide to generate appropriate probe substrate and test inhibitor concentrations for the determination of the Ki values for each CYP isoform. The isoform-specific probe substrate concentrations used were 3 to 100 µM phenacetin for CYP1A2 and 15 to 120 µM S-mephenytoin for CYP2C19. The MH concentrations used were 0 to 100 µM.
as §2

Data set [7] concerns human liver microsomes (HLMs). Nature of the data set: Kinetic analysis of MH metabolism in HLMs. The following applies: HLMs 0.5 mg/mL, MH 0.5–100 µM, 30 min, 37°C. Format: in vitro ADME.
Data set [8] concerns the target T3, CYP3A4 (Homo sapiens, UniProt P08684).
T3 construct: tissue Cypex Ltd. (U.K.); host or cells: pooled human liver microsomes, ten donors
The data set can be described thus: Inhibition of CYP3A4 (midazolam 1-hydroxylation) in HLMs. Format: in vitro ADME. Here is the method:
as §1, §4, §2

Data set [9] concerns the target T4, CYP1A2 (Homo sapiens, UniProt P05177).
T4 sequence (P05177 1-516): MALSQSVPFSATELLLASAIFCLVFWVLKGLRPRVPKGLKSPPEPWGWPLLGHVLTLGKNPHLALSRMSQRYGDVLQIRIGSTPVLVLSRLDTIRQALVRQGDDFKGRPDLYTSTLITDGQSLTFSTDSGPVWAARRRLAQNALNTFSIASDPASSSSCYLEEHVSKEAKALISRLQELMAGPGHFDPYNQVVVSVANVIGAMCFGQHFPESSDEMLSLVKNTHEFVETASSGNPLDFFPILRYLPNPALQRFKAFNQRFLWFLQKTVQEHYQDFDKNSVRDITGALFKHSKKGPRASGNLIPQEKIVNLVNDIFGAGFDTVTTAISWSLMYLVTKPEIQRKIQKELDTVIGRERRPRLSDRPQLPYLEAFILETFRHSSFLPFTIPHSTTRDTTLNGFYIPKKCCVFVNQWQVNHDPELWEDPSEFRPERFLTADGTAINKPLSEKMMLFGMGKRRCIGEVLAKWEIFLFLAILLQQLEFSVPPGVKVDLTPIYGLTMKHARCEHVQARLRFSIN
Nature of the data set: Kinetic analysis of MH metabolism by recombinant CYP1A2. Details: purchased Cypex Ltd. (U.K.). Particulars: recombinant CYP1A2 10 pmol. The data set is classed as in vitro ADME. Here is the method: as §1
(§6) Kinetic analysis was performed for MH, and the data generated were used as a guide for selecting the appropriate concentrations of MH in the subsequent inhibition experiments. Thus, the kinetic parameters for the metabolism of MH was determined by incubating increasing concentrations of MH (0.5–100 µM) (without the inhibitor) at 37°C with the HLMs and NADPH under the incubation conditions. The equation of MH reaction velocity (V) in the HLMs or CYP isoforms was expressed as V = (C0–Ct)/T/Cp, where C0 and Ct represented the initial and final concentrations of MH in the incubation solution, respectively. T was the incubation time (min) and Cp was the protein concentration (mg/mL or nmol). All values were expressed as the mean±standard deviation (SD). The mean intrinsic clearance rate (CLint) for the in vitro incubation was estimated using Vmax/Km.
as §2

In data set [10] the target is T4, CYP1A2. The data set can be described thus: Effect of specific inhibitor furafylline on MH metabolism in HLMs. Format: in vitro ADME. Details: tissue Cypex Ltd. (U.K.); host or cells: pooled human liver microsomes, ten donors. The following applies: MH 10 µM, in the presence of FUR 1 µM. Here is the method: as §1, §2
Data set [11] deals with T5, CYP2D6 (Homo sapiens, UniProt P10635).
T5 construct: tissue Cypex Ltd. (U.K.); host or cells: pooled human liver microsomes, ten donors
Nature of the data set: Inhibition of CYP2D6 (metoprolol α-hydroxylation) in HLMs. The data set is classed as in vitro ADME. Here is the method: as §1, §4, §2

For data set [12], the target named is T2, CYP2C19. Nature of the data set: Effect of specific inhibitor ticlopidine on MH metabolism in HLMs. The data set is classed as in vitro ADME. Details: tissue Cypex Ltd. (U.K.); host or cells: pooled human liver microsomes, ten donors. The following applies: MH 10 µM, in the presence of TIC 1 µM. Here is the method:
as §1, §2

Data set [13] has as its target T4, CYP1A2. The data set can be described thus: MCR of MH with recombinant CYP1A2 inhibited by furafylline. Particulars: furafylline 1 µM. Format: in vitro ADME. Details: purchased Cypex Ltd. (U.K.). Here is the method:
as §1, §3

The target of data set [14] is T5, CYP2D6. Nature of the data set: Effect of specific inhibitor quinidine on MH metabolism in HLMs. Format: in vitro ADME. Particulars: MH 10 µM, in the presence of QUI 1 µM. Here is the method: as §1, §2
Data set [15] concerns the target T1, CYP2C9. Nature of the data set: Inhibition of CYP2C9 (tolbutamide 4-hydroxylation) in HLMs. The data set is classed as in vitro ADME. Here is the method:
as §1, §4, §2

In data set [16] the target is T2, CYP2C19. The data set can be described thus: Kinetic analysis of MH metabolism by recombinant CYP2C19. The following applies: recombinant CYP2C19 10 pmol. More on the design: purchased Cypex Ltd. (U.K.). The data set is classed as in vitro ADME. As for the experimental part: as §1, §6, §2
Data set [17] deals with T3, CYP3A4. The data set can be described thus: Effect of specific inhibitor ketoconazole on MH metabolism in HLMs. Format: in vitro ADME. The following applies: MH 10 µM, in the presence of KET 1 µM. Here is the method:
as §1, §2

In data set [18] the target is T4, CYP1A2. Nature of the data set: Inhibition of CYP1A2 (phenacetin O-deethylation) in HLMs. Format: in vitro ADME. More on the design: tissue Cypex Ltd. (U.K.); host or cells: pooled human liver microsomes, ten donors. Here is the method:
as §1, §4, §5, §2

T2 sequence (P33261 whole entry): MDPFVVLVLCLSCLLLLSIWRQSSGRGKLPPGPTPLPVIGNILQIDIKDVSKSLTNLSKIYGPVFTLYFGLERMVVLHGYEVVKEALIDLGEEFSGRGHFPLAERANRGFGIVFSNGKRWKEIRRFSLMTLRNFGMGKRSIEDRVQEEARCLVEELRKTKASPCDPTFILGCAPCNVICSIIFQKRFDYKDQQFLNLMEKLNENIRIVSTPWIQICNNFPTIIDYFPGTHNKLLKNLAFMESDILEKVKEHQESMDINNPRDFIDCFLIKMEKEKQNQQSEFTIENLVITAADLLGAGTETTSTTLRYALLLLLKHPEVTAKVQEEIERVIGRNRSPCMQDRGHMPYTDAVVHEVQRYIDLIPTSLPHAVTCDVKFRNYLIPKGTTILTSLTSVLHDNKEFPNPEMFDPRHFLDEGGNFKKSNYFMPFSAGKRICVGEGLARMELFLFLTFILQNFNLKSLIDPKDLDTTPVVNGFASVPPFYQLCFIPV
T1 sequence (P11712 whole entry): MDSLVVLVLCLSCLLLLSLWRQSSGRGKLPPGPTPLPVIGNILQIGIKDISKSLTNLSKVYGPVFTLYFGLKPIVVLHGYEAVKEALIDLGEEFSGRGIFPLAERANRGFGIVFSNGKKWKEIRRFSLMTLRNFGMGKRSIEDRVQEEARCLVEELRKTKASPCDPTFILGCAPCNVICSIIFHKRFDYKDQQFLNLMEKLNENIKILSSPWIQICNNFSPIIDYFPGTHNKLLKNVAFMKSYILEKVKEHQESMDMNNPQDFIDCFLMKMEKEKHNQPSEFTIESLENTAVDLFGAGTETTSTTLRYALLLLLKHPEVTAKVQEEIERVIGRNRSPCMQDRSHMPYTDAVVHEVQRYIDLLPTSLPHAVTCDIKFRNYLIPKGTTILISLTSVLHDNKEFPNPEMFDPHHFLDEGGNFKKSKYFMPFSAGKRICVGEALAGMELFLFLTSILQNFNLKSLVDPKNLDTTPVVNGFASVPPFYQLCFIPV
T5 sequence (P10635 whole entry): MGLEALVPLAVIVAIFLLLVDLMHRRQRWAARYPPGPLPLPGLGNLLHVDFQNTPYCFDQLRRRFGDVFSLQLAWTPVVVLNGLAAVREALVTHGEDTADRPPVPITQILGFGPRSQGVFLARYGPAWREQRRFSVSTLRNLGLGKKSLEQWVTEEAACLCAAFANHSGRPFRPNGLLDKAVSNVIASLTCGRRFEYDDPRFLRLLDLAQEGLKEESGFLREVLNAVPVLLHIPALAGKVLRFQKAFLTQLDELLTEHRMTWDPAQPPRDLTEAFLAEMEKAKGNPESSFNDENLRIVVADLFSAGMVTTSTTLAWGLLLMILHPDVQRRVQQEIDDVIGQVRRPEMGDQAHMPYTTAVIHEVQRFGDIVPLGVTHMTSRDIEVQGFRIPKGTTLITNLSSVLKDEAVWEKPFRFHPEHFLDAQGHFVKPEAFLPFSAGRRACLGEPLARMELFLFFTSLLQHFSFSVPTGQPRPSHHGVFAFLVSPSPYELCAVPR
T3 sequence (P08684 whole entry): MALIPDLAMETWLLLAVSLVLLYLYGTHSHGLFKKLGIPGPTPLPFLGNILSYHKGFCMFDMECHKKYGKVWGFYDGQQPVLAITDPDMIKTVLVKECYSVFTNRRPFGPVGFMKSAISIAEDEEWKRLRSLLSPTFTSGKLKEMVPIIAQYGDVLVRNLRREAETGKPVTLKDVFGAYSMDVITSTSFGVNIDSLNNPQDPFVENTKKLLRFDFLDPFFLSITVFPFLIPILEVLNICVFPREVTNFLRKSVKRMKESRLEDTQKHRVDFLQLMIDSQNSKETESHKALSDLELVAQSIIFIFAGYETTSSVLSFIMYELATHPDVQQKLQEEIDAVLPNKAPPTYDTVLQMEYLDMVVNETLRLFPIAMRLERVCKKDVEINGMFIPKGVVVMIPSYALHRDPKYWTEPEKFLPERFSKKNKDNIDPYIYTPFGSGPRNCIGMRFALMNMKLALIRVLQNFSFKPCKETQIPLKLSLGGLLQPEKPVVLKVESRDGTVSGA
CYP2E1, sequence (P05181 whole entry): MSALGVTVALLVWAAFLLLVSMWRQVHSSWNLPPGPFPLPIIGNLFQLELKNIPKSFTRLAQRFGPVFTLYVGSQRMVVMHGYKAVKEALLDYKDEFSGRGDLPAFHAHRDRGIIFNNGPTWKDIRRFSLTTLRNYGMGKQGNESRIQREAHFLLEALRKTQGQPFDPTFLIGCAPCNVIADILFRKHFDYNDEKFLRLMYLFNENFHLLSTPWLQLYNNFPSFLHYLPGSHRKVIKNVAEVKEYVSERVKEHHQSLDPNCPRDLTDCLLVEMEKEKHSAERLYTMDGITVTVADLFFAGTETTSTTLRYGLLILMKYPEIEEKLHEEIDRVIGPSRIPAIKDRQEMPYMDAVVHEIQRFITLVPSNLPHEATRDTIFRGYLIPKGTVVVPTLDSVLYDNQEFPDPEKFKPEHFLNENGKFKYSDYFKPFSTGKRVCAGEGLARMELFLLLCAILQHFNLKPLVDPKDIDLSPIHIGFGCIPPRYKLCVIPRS

Regarding `Cc1ncsc1CCCl` [CHL, chlormethiazole hydrochloride], the Ki in data set [1] (read-out: Ki, specific inhibitor reported value, CYP2E1) was 12 µM.
As to `CCN(CC)C(=S)S` [DIE, diethyldithiocarbamate], the IC50 in data set [1] is 21.3 µM.
Consider `COc1ccc2ccc(=O)oc2c1C[C@H](O)C(C)(C)O` [MH, Meranzin hydrate], for which the “effect on metabolism (MCR) of MH” value in [2], in [14] and in data set [17] was “no obvious inhibitory effects” in each case. Moreover, the “amplitude of contractility in the longitudinal and circular jejunum muscles” value in [3] is given as “increase the amplitude of contractility”. The gastric emptying result in data set [4] is listed as “significantly accelerated”. Moreover, the intestinal transit entry in data set [4] is listed as “significantly accelerated”. Moreover, the “MCR of MH, % of that of the control” value in data set [5] (recombinant CYP2C19, MH 10 µM) is recorded as 68.5%; in data set [5] (recombinant CYP2C19, MH 50 µM), 80.5%; in data set [13] (recombinant CYP1A2, MH 10 µM), 43.5%; in [13] (recombinant CYP1A2, MH 50 µM), 60.5%. In addition, the type of inhibition result is “competitively; also recorded: full competitive inhibition” in data set [6] (CYP2C19, HLMs, Dixon / Lineweaver-Burk plots) and “competitive” in [18] (CYP1A2, HLMs, Dixon / Lineweaver-Burk plots). Moreover, the IC50 in data set [6] (CYP2C19, classification of Kong et al [23], read-out: inhibitor potency class by IC50) was 10 to 50 µM; in data set [8] (CYP3A4, classification of Kong et al [23], read-out: inhibitor potency class by IC50), over 50 µM; in data set [8] (HLMs, midazolam 5 µM, read-out: IC50), over 100 µM; in data set [11] (CYP2D6, classification of Kong et al [23], read-out: inhibitor potency class by IC50), over 50 µM; in data set [11] (HLMs, metoprolol 7.5 µM, read-out: IC50), over 100 µM; in data set [15] (CYP2C9, classification of Kong et al [23], read-out: inhibitor potency class by IC50), over 50 µM. In addition, the IC50 in [15] (HLMs, tolbutamide 100 µM, read-out: IC50) is over 100 µM; in data set [18] (CYP1A2, classification of Kong et al [23], read-out: inhibitor potency class by IC50), under 10 µM; in data set [18] (HLMs, phenacetin 10 µM, brackets = 95% confidence interval, read-out: IC50) it was 4.47 µM. Besides, the Ki is 42.6 µM in [6] (HLMs, S-mephenytoin 15 to 120 µM, MH 0 to 100 µM) and 4.56 µM in data set [18] (HLMs, phenacetin 3 to 100 µM, MH 0 to 100 µM). The Km was determined as 10.3 ± 1.3 µM in [7]; 10.3 µM in data set [7] (listed as Meranzin hydrate); 8 ± 1.6 µM in data set [9]; 25.9 ± 6.6 µM in data set [16]; 25.9 µM in data set [16] (listed as Meranzin hydrate). The “Vmax of MH metabolism” value in data set [7] came to 99.1±3.3 nmol/mg protein/min; in data set [7] (listed as Meranzin hydrate) it was 99.11 nmol/mg protein/min; in data set [9] it was 112.4±5.7 nmol/nmol P450/min; in data set [9] (listed as Meranzin hydrate), 112.4 nmol/nmol P450/min; in data set [16], 134.3±12.4 nmol/nmol P450/min; in data set [16] (listed as Meranzin hydrate) it was 134.3 nmol/nmol P450/min. In addition, the “metabolic clearance rate (MCR) of MH, % of that of the control” value in [10] is 29.1±7.2% and 29.1%; in data set [12], 41.3±11.1% and 41.3%. Also, the “IC50 of MH relative to that of FUR” value in data set [18] (CYP1A2, phenacetin O-deethylation, HLMs, higher than FUR) is listed as 3.2 fold. Moreover, the “Ki of MH relative to that of FUR” value in data set [18] (CYP1A2, phenacetin O-deethylation, higher than FUR) is given as “approximately 1.5 fold”.
